The values below come from ChEMBL document CHEMBL4219054, “Induction of apoptosis by pyrazolo[3,4-d]pyridazine derivative in lung cancer cells via disruption of Bcl-2/Bax expression balance” (Bioorg Med Chem, 2018).

Structures are written as SMILES.

Assay [1] deals with A549. Nature of the assay: Induction of apoptosis in human A549 assessed as necrotic cells at 0.067 mM after 48 hrs by Annexin-V FITC/propidium iodide staining-based flow cytometric analysis (reference value: 0.2%). The class given is functional. A general note: Flow cytometry measures light scatter and fluorescence of single cells or particles in a stream.
Assay [2] concerns WI-38. The assay is described as follows: Antiproliferative activity against human WI38 cells after 48 hrs by MTT assay. It is filed as cell-based. The conditions noted are these: WI-38, 48 h. Background: Tetrazolium dyes change colour on reduction, which living cells bring about.
Assay [3] deals with A549. The assay is described as follows: Antiproliferative activity against human A549 cells after 48 hrs by MTT assay. It is filed as functional, cell-based.
Assay [4] concerns A549. Nature of the assay: Induction of apoptosis in human A549 assessed as upregulation of p53 mRNA expression level at 0.067 mM by RT-PCR analysis relative to control. The class given is functional.
Assay [5] deals with A549. Nature of the assay: Cell cycle arrest in human A549 cells assessed as accumulation at S phase at 0.067 mM after 48 hrs by propidium iodide staining-based flow cytometric analysis (reference value: 27.04%). It is filed as functional.
The test system of assay [6] is A549. The assay is described as follows: Induction of apoptosis in human A549 assessed as upregulation of Bax mRNA expression level at 0.067 mM by RT-PCR analysis relative to control. The class given is functional.
The test system of assay [7] is A549. Nature of the assay: Induction of apoptosis in human A549 assessed as early apoptotic cells at 0.067 mM after 48 hrs by Annexin-V FITC/propidium iodide staining-based flow cytometric analysis (reference value: 0.36%). The class given is functional.
Assay [8] relates to A549. The assay is described as follows: Cell cycle arrest in human A549 cells assessed as accumulation at G2/M phase at 0.067 mM after 48 hrs by propidium iodide staining-based flow cytometric analysis (reference value: 5.34%). It is filed as functional.
Assay [9] deals with HCT-116. Nature of the assay: Antiproliferative activity against human HCT116 cells after 48 hrs by MTT assay. The class given is functional, cell-based.
The subject of assay [10] is HepG2. Nature of the assay: Antiproliferative activity against human HepG2 cells after 48 hrs by MTT assay. The class given is functional, cell-based.
Assay [11] deals with A549. The assay is described as follows: Induction of apoptosis in human A549 assessed as inhibition of Bcl2 mRNA expression level at 0.067 mM by RT-PCR analysis relative to control. It is filed as functional.
The subject of assay [12] is A549. Nature of the assay: Cell cycle arrest in human A549 cells assessed as accumulation at G0/G1 phase at 0.067 mM after 48 hrs by propidium iodide staining-based flow cytometric analysis (reference value: 66.85%). The class given is functional.
Assay [13] has as its system A549. Nature of the assay: Induction of apoptosis in human A549 assessed as late apoptotic cells at 0.067 mM after 48 hrs by Annexin-V FITC/propidium iodide staining-based flow cytometric analysis (reference value: 0.21%). It is filed as functional.
The nature of assay [14]: Antiproliferative activity against human HFB4 cells after 48 hrs by MTT assay. It is filed as cell-based.
Assay [15] deals with A549. The assay is described as follows: Cell cycle arrest in human A549 cells assessed as accumulation at sub G1 phase at 0.067 mM after 48 hrs by propidium iodide staining-based flow cytometric analysis (reference value: 0.77%). The class given is functional.
Assay [16] concerns A549. The assay is described as follows: Induction of apoptosis in human A549 assessed as viable cells at 0.067 mM after 48 hrs by Annexin-V FITC/propidium iodide staining-based flow cytometric analysis (reference value: 97.42%). The class given is functional. The settings on record: A549, 48 h, read-out: Activity.
The subject of assay [17] is A549. The assay is described as follows: Induction of apoptosis in human A549 assessed as upregulation of caspase-3 mRNA expression level at 0.067 mM by RT-PCR analysis relative to control. It is filed as functional.

Broadly, the IC50 is the concentration that gives 50% inhibition. Low values mean higher potency, high ones lower potency. As for `O=c1oc2ccc3ccccc3c2cc1-c1n[nH]c(=O)c2nn(-c3ccccc3)cc12`, the Activity is 1.36% in [1]; “Dose-dependent effect” in assay [3]; 16.59% in assay [5]; 4.69% in assay [7]; 15.11% in assay [8]; “Dose-dependent effect” in [9]. For the same compound, the Activity entry in [10] was “Dose-dependent effect”; in [12] it was 56.88%; in assay [13], 5.37%; in [15] it was 11.42%. The IC50 turned out to be 219 µM in assay [2]; 67 µM in assay [3] (A549, 48 h); 130 µM in assay [9] (HCT-116, 48 h); 115 µM in assay [10] (HepG2, 48 h); 281 µM in assay [14]. Further, the “fold change (FC)” value in assay [4] was 5.08; in assay [6], 7.28; in assay [11] it was 0.22; in [17], 7.19. In assay [16], the viability at 67 µM was determined as 86.9%.
